Laboratory results taken from US9969742B2, “Imidazotriazinone compounds” (Ironwood Pharmaceuticals, Inc., priority 2012, dated 2018).
pIC50: −log10 of the molar value. Like-named read-outs stand apart in the source and are kept apart here.

What was measured:
Type in all cases: biochemical
PDE1B = target: T1, PDE1B (Homo sapiens, UniProt Q01064); assay: Phosphodiesterase enzyme screening assay, PDE1B
T1 construct: purchased Reaction Biology Corporation, Malvern, Pa
Method in brief: (§1)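 Reaction started by adding substrate (4.0 μM cGMP) to recombinant human enzyme in HEPES pH 7.5 buffer with MgCl2, DTT and Brij; 1 h at room temperature; quenched with EDTA-containing stop buffer; product and substrate resolved electrophoretically and quantified by fluorescence relative to uninhibited controls.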

PDE9A2 = target: T2, PDE9A2 (Homo sapiens, UniProt O76083); assay: Phosphodiesterase enzyme screening assay, PDE9A2
T2 construct: purchased Reaction Biology Corporation, Malvern, Pa
Method in brief: as §1

PDE1A = target: T3, PDE1A (Homo sapiens, UniProt P54750); assay: Phosphodiesterase enzyme screening assay, PDE1A
T3 construct: purchased Reaction Biology Corporation, Malvern, Pa
Method in brief: as §1

[1] = ratio of IC50 values, PDE1B versus PDE9A2, value greater than 1 = greater selectivity for PDE9A2
[2] = Table 3, 4.0 μM cGMP substrate, 1 hour at R.T., read-out: Band (PDE9A2 IC50)
[3] = ratio of IC50 values, PDE1A versus PDE9A2, value greater than 1 = greater selectivity for PDE9A2
[4] = ratio of IC50 values, PDE1B versus PDE9A2, value greater than 1 indicates greater selectivity for PDE9A2
[5] = ratio of IC50 values, PDE1A versus PDE9A2, value greater than 1 indicates greater selectivity for PDE9A2
[6] = ratio of IC50 values PDE1B / PDE9A2, value greater than 1 = greater selectivity for PDE9A2
[7] = 4.0 μM cGMP substrate, 1 hour at R.T., read-out: Band (PDE9A2 IC50)
[8] = ratio of IC50 values PDE1A / PDE9A2, value greater than 1 = greater selectivity for PDE9A2
[9] = Table 1, ratio of IC50 values, value greater than 1 indicates greater selectivity for PDE9A2
[10] = Table 1, 10 concentrations, 4.0 μM cGMP substrate, 1 hour at R.T., read-out: Band (PDE9A2 IC50)
[11] = ratio of IC50 values, value greater than 1 indicates greater selectivity for PDE9A2
[12] = Table 2, ratio of IC50 values, value greater than 1 indicates greater selectivity for PDE9A2
[13] = Table 2, 10 concentrations, 4.0 μM cGMP substrate, 1 hour at R.T., read-out: Band (PDE9A2 IC50)

T1 sequence (Q01064 whole entry): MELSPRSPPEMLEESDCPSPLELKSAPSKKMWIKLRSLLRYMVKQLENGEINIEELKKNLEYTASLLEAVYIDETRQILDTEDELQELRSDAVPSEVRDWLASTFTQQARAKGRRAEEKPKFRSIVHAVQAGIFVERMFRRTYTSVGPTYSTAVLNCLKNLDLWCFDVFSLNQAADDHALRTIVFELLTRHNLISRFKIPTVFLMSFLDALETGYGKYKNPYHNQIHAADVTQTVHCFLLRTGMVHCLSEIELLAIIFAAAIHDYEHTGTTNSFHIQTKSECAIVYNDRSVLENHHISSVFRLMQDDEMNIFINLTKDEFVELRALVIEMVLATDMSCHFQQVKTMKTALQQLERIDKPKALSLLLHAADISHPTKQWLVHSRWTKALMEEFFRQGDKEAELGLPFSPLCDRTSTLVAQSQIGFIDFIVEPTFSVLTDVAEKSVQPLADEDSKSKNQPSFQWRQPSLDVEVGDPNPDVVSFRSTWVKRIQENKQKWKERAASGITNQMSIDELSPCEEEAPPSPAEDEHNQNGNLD
T2 sequence (O76083 1-533 isoform O76083-2): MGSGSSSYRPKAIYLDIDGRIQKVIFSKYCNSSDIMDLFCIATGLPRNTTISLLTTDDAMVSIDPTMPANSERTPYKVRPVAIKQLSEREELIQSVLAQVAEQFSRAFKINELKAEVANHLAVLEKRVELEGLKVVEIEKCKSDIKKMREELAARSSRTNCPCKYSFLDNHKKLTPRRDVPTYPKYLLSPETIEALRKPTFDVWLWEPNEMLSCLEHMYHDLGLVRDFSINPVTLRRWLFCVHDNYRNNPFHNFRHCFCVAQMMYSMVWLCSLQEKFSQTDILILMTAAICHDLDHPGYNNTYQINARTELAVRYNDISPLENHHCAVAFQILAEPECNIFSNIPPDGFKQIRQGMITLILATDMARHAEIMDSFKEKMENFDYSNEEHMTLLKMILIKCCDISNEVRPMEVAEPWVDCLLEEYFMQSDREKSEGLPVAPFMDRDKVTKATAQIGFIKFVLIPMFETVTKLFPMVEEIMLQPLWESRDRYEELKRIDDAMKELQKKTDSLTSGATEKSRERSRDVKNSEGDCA
T3 sequence (P54750 whole entry): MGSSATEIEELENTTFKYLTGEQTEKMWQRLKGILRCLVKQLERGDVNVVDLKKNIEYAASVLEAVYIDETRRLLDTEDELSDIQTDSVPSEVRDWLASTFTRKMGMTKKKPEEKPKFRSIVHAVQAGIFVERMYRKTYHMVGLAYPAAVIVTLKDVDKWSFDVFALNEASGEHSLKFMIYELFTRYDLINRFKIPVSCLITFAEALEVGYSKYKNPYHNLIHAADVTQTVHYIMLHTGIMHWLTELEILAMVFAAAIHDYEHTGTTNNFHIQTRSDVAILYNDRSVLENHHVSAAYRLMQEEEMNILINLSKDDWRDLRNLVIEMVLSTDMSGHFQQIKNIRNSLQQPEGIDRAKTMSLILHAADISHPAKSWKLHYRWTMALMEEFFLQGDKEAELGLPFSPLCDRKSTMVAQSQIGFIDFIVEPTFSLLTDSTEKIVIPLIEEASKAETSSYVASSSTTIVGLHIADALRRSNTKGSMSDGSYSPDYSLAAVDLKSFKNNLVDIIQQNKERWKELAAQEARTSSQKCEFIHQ

SMILES: CC1CN(Cc2cccc3cccnc23)CC1c1nn2c(C3CCOCC3)ncc2c(=O)[nH]1 (single isomer, unassigned; (+)) [(+)-2-((3,4-trans)-4-methyl-1-(quinolin-8-ylmethyl)pyrrolidin-3-yl)-7-(tetrahydro-2H-pyran-4-yl)imidazo[5,1-f][1,2,4]triazin-4(3H)-one]
- PDE1B selectivity (versus PDE9A2) (PDE1B; [1]): 673
- pIC50 (PDE9A2; [2]): > 6.00
- PDE1A selectivity (versus PDE9A2) (PDE1A; [3]): 647

SMILES: CC1CN(Cc2ccc3nsnc3c2)CC1c1nn2c(C3CCOCC3)ncc2c(=O)[nH]1 (single isomer, unassigned; (+)) [(+)-2-((3,4-trans)-1-(benzo[c][1,2,5]thiadiazol-5-ylmethyl)-4-methylpyrrolidin-3-yl)-7-(tetrahydro-2H-pyran-4-yl)imidazo[5,1-f][1,2,4]triazin-4(3H)-one]
- PDE1B selectivity (versus PDE9A2) (PDE1B; [1]): 473
- pIC50 (PDE9A2; [2]): > 6.00
- PDE1A selectivity (versus PDE9A2) (PDE1A; [3]): 212

SMILES: Cc1ccccc1-c1ncc2c(=O)[nH]c(C3CN(Cc4cccnc4)CC3C)nn12 (single isomer, unassigned; (+)) [(+)-2-((3,4-trans)-4-methyl-1-(pyridin-3-ylmethyl)pyrrolidin-3-yl)-7-(o-tolyl)imidazo[5,1-f][1,2,4]triazin-4(3H)-one]
- PDE1B selectivity (versus PDE9A2) (PDE1B; [4]): 183
- pIC50 (PDE9A2; read-out: Band (PDE9A2 IC50)): > 6.00
- PDE1A selectivity (versus PDE9A2) (PDE1A; [5]): 103

SMILES: CC1CN(Cc2cc(F)ccc2Cl)CC1c1nn2c(C3CCOCC3)ncc2c(=O)[nH]1 (single isomer, unassigned; (+)) [(+)-2-((3,4-trans)-1-(2-chloro-5-fluorobenzyl)-4-methylpyrrolidin-3-yl)-7-(tetrahydro-2H-pyran-4-yl)imidazo[5,1-f][1,2,4]triazin-4(3H)-one]
- PDE1B selectivity (versus PDE9A2) (PDE1B; [6]): 73
- pIC50 (PDE9A2; [7]): > 6.00
- PDE1A selectivity (versus PDE9A2) (PDE1A; [8]): 177

SMILES: CC1CN(C(=O)c2cccc(F)c2)CC1c1nn2c(C3CCOCC3)ncc2c(=O)[nH]1 (single isomer, unassigned; (-)) [(−)-2-((3,4-trans)-1-(3-fluorobenzoyl)-4-methylpyrrolidin-3-yl)-7-(tetrahydro-2H-pyran-4-yl)imidazo[5,1-f][1,2,4]triazin-4(3H)-one]
- PDE1B selectivity (versus PDE9A2) (PDE1B; [9]): 26
- pIC50 (PDE9A2; [10]): > 6.00
- PDE1A selectivity (versus PDE9A2) (PDE1A; [9]): 26

SMILES: Cc1cc(CN2CC(C)C(c3nn4c(C5CCOCC5)ncc4c(=O)[nH]3)C2)ccn1 (single isomer, unassigned; (+)) [(+)-2-((3,4-trans)-4-methyl-1-((2-methylpyridin-4-yl)methyl)pyrrolidin-3-yl)-7-(tetrahydro-2H-pyran-4-yl)imidazo[5,1-f][1,2,4]triazin-4(3H)-one]
- PDE1B selectivity (versus PDE9A2) (PDE1B; [6]): 421
- pIC50 (PDE9A2; [7]): > 6.00
- PDE1A selectivity (versus PDE9A2) (PDE1A; [8]): 232

SMILES: CC1CN(Cc2nc3ccccn3n2)CC1c1nn2c(-c3ccc(F)cc3)ncc2c(=O)[nH]1 (single isomer, unassigned; (+)) [(+)-2-((3,4-trans)-1-([1,2,4]triazolo[1,5-a]pyridin-2-ylmethyl)-4-methylpyrrolidin-3-yl)-7-(4-fluorophenyl)imidazo[5,1-f][1,2,4]triazin-4(3H)-one]
- PDE1B selectivity (versus PDE9A2) (PDE1B; [4]): 87
- pIC50 (PDE9A2; read-out: Band (PDE9A2 IC50)): > 6.00
- PDE1A selectivity (versus PDE9A2) (PDE1A; [5]): 87

SMILES: CC1CN(Cc2ccc(-c3ccccc3)cc2)CC1c1nn2c(C3CCOCC3)ncc2c(=O)[nH]1 (single isomer, unassigned; (-)) [(−)-2-((3,4-trans)-1-([1,1′-biphenyl]-4-ylmethyl)-4-methylpyrrolidin-3-yl)-7-(tetrahydro-2H-pyran-4-yl)imidazo[5,1-f][1,2,4]triazin-4(3H)-one]
- PDE1B selectivity (versus PDE9A2) (PDE1B; [11]): 2060
- pIC50 (PDE9A2; read-out: Band (PDE9A2 IC50)): > 6.00
- PDE1A selectivity (versus PDE9A2) (PDE1A; [11]): 2875

SMILES: CC1CN(Cc2cc(Cl)ccc2F)CC1c1nn2c(C3CCOCC3)ncc2c(=O)[nH]1 (single isomer, unassigned; (+)) [(+)-2-((3,4-trans)-1-(5-chloro-2-fluorobenzyl)-4-methylpyrrolidin-3-yl)-7-(tetrahydro-2H-pyran-4-yl)imidazo[5,1-f][1,2,4]triazin-4(3H)-one]
- PDE1B selectivity (versus PDE9A2) (PDE1B; [6]): 16
- pIC50 (PDE9A2; [7]): > 6.00
- PDE1A selectivity (versus PDE9A2) (PDE1A; [8]): 15

SMILES: Cc1cnc(CN2CC(C)C(c3nn4c(C5CCOCC5)ncc4c(=O)[nH]3)C2)nc1 (single isomer, unassigned; (+)) [(+)-2-((3,4-trans)-4-methyl-1-((5-methylpyrimidin-2-yl)methyl)pyrrolidin-3-yl)-7-(tetrahydro-2H-pyran-4-yl)imidazo[5,1-f][1,2,4]triazin-4(3H)-one]
- PDE1B selectivity (versus PDE9A2) (PDE1B; [12]): 76
- pIC50 (PDE9A2; [13]): > 6.00
- PDE1A selectivity (versus PDE9A2) (PDE1A; [12]): 42

SMILES: CC1CN(Cc2ccc(C(F)(F)F)nc2)CC1c1nn2c(C3CCOCC3)ncc2c(=O)[nH]1 (single isomer, unassigned; (+)) [(+)-2-((3,4-trans)-4-methyl-1-((6-(trifluoromethyl)pyridin-3-yl)methyl)pyrrolidin-3-yl)-7-(tetrahydro-2H-pyran-4-yl)imidazo[5,1-f][1,2,4]triazin-4(3H)-one]
- PDE1B selectivity (versus PDE9A2) (PDE1B; [9]): 980
- pIC50 (PDE9A2; [10]): > 6.00
- PDE1A selectivity (versus PDE9A2) (PDE1A; [9]): 333

SMILES: CC1CN(Cc2ccnc3ccccc23)CC1c1nn2c(C3CCOCC3)ncc2c(=O)[nH]1 (single isomer, unassigned; (+)) [(+)-2-((3,4-trans)-4-methyl-1-(quinolin-4-ylmethyl)pyrrolidin-3-yl)-7-(tetrahydro-2H-pyran-4-yl)imidazo[5,1-f][1,2,4]triazin-4(3H)-one]
- PDE1B selectivity (versus PDE9A2) (PDE1B; [9]): 987
- pIC50 (PDE9A2; [10]): > 6.00
- PDE1A selectivity (versus PDE9A2) (PDE1A; [9]): 471

SMILES: CC1CN(Cc2cccc(Cl)c2Cl)CC1c1nn2c(C3CCOCC3)ncc2c(=O)[nH]1 (single isomer, unassigned; (+)) [(+)-2-((3,4-trans)-1-(2,3-dichlorobenzyl)-4-methylpyrrolidin-3-yl)-7-(tetrahydro-2H-pyran-4-yl)imidazo[5,1-f][1,2,4]triazin-4(3H)-one]
- PDE1B selectivity (versus PDE9A2) (PDE1B; [6]): 199
- pIC50 (PDE9A2; [7]): > 6.00
- PDE1A selectivity (versus PDE9A2) (PDE1A; [8]): 195

SMILES: Cc1cnccc1-c1ncc2c(=O)[nH]c(C3CN(Cc4ccccc4)CC3C)nn12 (single isomer, unassigned; (+)) [(+)-2-((3,4-trans)-1-benzyl-4-methylpyrrolidin-3-yl)-7-(3-methylpyridin-4-yl) imidazo [5,1-f] [1,2,4] triazin-4 (3H)-one]
- PDE1B selectivity (versus PDE9A2) (PDE1B; ratio of IC50 values PDE1B / PDE9A2, value greater than 1 indicates greater selectivity for PDE9A2): 144
- pIC50 (PDE9A2; [7]): > 6.00
- PDE1A selectivity (versus PDE9A2) (PDE1A; ratio of IC50 values PDE1A / PDE9A2, value greater than 1 indicates greater selectivity for PDE9A2): 167

SMILES: Cc1ccc(F)cc1-c1ncc2c(=O)[nH]c(C3CN(Cc4cnccn4)CC3C)nn12 (single isomer, unassigned; (+)) [(+)-7-(5-fluoro-2-methylphenyl)-2-((3,4-trans)-4-methyl-1-(pyrazin-2-ylmethyl)pyrrolidin-3-yl)imidazo[5,1-f][1,2,4]triazin-4(3H)-one]
- PDE1B selectivity (versus PDE9A2) (PDE1B; ratio of IC50 values PDE1B vs PDE9A2, value greater than 1 indicates greater selectivity for PDE9A2): 74
- pIC50 (PDE9A2; IC50 band, 4.0 μM cGMP substrate, 1 hour at R.T.): > 6.00
- PDE1A selectivity (versus PDE9A2) (PDE1A; ratio of IC50 values PDE1A vs PDE9A2, value greater than 1 indicates greater selectivity for PDE9A2): 85

SMILES: CC1CN(C(=O)c2ccc3ccccc3n2)CC1c1nn2c(C3CCOCC3)ncc2c(=O)[nH]1 (single isomer, unassigned; (-)) [(−)-2-((3,4-trans)-4-methyl-1-(quinoline-2-carbonyl)pyrrolidin-3-yl)-7-(tetrahydro-2H-pyran-4-yl)imidazo[5,1-f][1,2,4]triazin-4(3H)-one]
- PDE1B selectivity (versus PDE9A2) (PDE1B; [9]): 59
- pIC50 (PDE9A2; [10]): > 6.00
- PDE1A selectivity (versus PDE9A2) (PDE1A; [9]): 25

SMILES: Cc1cc(C)nc(CN2CC(C)C(c3nn4c(C5CCOCC5)ncc4c(=O)[nH]3)C2)n1 (single isomer, unassigned; (+)) [(+)-2-((3,4-trans)-1-((4,6-dimethylpyrimidin-2-yl)methyl)-4-methylpyrrolidin-3-yl)-7-(tetrahydro-2H-pyran-4-yl)imidazo[5,1-f][1,2,4]triazin-4(3H)-one]
- PDE1B selectivity (versus PDE9A2) (PDE1B; [12]): 767
- pIC50 (PDE9A2; [13]): > 6.00
- PDE1A selectivity (versus PDE9A2) (PDE1A; [12]): 947

SMILES: COc1ccccc1CN1CC(C)C(c2nn3c(C4CCOCC4)ncc3c(=O)[nH]2)C1 (single isomer, unassigned; (+)) [(+)-2-((3,4-trans)-1-(2-methoxybenzyl)-4-methylpyrrolidin-3-yl)-7-(tetrahydro-2H-pyran-4-yl)imidazo[5,1-f][1,2,4]triazin-4(3H)-one]
- PDE1B selectivity (versus PDE9A2) (PDE1B; [9]): 230
- pIC50 (PDE9A2; [10]): > 6.00
- PDE1A selectivity (versus PDE9A2) (PDE1A; [9]): 337

SMILES: Cc1ccccc1CN1CC(C)C(c2nn3c(C4CCOCC4)ncc3c(=O)[nH]2)C1 (single isomer, unassigned; (+)) [(+)-2-((3,4-trans)-4-methyl-1-(2-methylbenzyl)pyrrolidin-3-yl)-7-(tetrahydro-2H-pyran-4-yl)imidazo[5,1-f][1,2,4]triazin-4(3H)-one]
- PDE1B selectivity (versus PDE9A2) (PDE1B; [9]): 105
- pIC50 (PDE9A2; [10]): > 6.00
- PDE1A selectivity (versus PDE9A2) (PDE1A; [9]): 249
